Measurements taken from the supplement of paper PMC5844555.

Key:
Experiment in all cases: 3' UTR reporter interaction score (median-centred robust z-score of log2 firefly/Renilla activity); higher = less repression of the 3' UTR reporter
Conditions in all cases: HEK293T; 48 h
[1] = system: PHF6
Outline: (§1)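 Firefly and Renilla luciferase activities were read 48 h post-transfection in HEK293T cells (10,000/well, 96-well plates). The cells had received 100 ng firefly luc2P reporter bearing the gene's 3' UTR, 20 ng Renilla pRL-TK control and 2.5 pmol miRNA mimic via DharmaFECT Duo. The interaction score, where more negative means interaction, is a per-plate robust z-score (median, median absolute deviation) of the log firefly/Renilla ratio, median-centred per miRNA and averaged over at least two independent screens.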

[2] = system: NOTCH1
Outline: as §1

[3] = system: MYB
Outline: as §1

[4] = system: BRCA2
Outline: as §1

[5] = system: TP53
Outline: as §1

[6] = system: MYC
Outline: as §1

[7] = system: RB1
Outline: as §1

[8] = system: EZH2
Outline: as §1

[9] = system: MYCN
Outline: as §1

[10] = system: FBXW7
Outline: as §1

[11] = system: MYT1L
Outline: as §1

[12] = system: HRAS
Outline: as §1

[13] = system: ZEB2
Outline: as §1

[14] = system: PHOX2B
Outline: as §1

Row | Sequence | 3' UTR reporter interaction score [1] | 3' UTR reporter interaction score [2] | 3' UTR reporter interaction score [3] | 3' UTR reporter interaction score [4] | 3' UTR reporter interaction score [5] | 3' UTR reporter interaction score [6] | 3' UTR reporter interaction score [7] | 3' UTR reporter interaction score [8] | 3' UTR reporter interaction score [9] | 3' UTR reporter interaction score [10] | 3' UTR reporter interaction score [11] | 3' UTR reporter interaction score [12] | 3' UTR reporter interaction score [13] | 3' UTR reporter interaction score [14]
1 | UAAAGUGCUUAUAGUGCAGGUAG | 1.96 | 0.917 | -0.124 | 1.9 | -0.181 | -0.207 | 0.204 | -0.364 | -0.791 | -0.632 | -0.414 | 0.379 | 0.262 | –
2 | UAAGGCACCCUUCUGAGUAGA | -0.903 | -0.104 | – | 0.5 | -0.0578 | -0.593 | -1.28 | -2.69 | -0.435 | 0.601 | 1.04 | 0.999 | 0.807 | 1.39
3 | UACGUCAUCGUUGUCAUCGUCA | -0.457 | -0.131 | -0.203 | 0.347 | 0.00955 | -0.111 | 0.229 | -0.223 | -1.02 | 0.256 | – | 0.167 | -2.2 | 0.31
4 | UAGCAGCACAUAAUGGUUUGUG | 1 | 0.0154 | -1.32 | -0.161 | -0.405 | 1.03 | -0.091 | – | -0.121 | -3.3 | -2.1 | 1.55 | 1.33 | 0.742
5 | UAGGUAGUUUCCUGUUGUUGG | -0.855 | 0.244 | 0.0231 | -0.449 | 0.913 | -0.416 | -0.415 | 0.324 | – | -0.0724 | -0.34 | -0.324 | 0.639 | 0.179
6 | UAGUAGACCGUAUAGCGUACG | 0.821 | 1.8 | 1.44 | -0.367 | 0.138 | -0.638 | 0.459 | -0.435 | 0.359 | -0.321 | 1.28 | -0.49 | 2.18 | –
7 | UAUUGCACAUUACUAAGUUGC | 0.521 | -0.36 | – | 0.064 | -0.165 | 0.647 | 0.119 | -1.18 | 1.19 | -3.29 | 0.0117 | -0.69 | -0.436 | –
8 | UCUCACACAGAAAUCGCACCCGUC | 0.199 | 0.283 | 0.485 | 1 | -0.669 | -3.89 | -0.308 | – | -1.33 | -0.236 | -0.241 | -1.52 | 0.106 | 0.123
9 | UCUGCUCAUACCCCAUGGUUUCU | 1.4 | -0.475 | -1.65 | 1.96 | 0.807 | 0.772 | 1.62 | 0.623 | -0.385 | -0.521 | -0.849 | -0.642 | -0.101 | –
10 | UGAGGUAGGAGGUUGUAUAGU | -0.232 | -0.642 | 0.624 | 0.75 | 0.0915 | -2.75 | – | -3.52 | -3.52 | 0.127 | -0.34 | 0.649 | -0.156 | 0.238
